What is called pKa is the pH at which an ionisable group is half protonated. Low readings indicate a group that gives up its proton readily, high ones a group that holds its proton tightly.

SMILES strings stand for the structures.

The nature of the series: pKa value was determined. It counts as physicochemical.

For the molecule `COC(=O)C(Cc1ccc(O)cc1)NC(=O)CN(CCN(CC(=O)O)CC(=O)NC(Cc1ccc(O)cc1)C(=O)OC)CC(=O)O` (stereo unspecified), the pKa turned out to be 6.8.

The record behind these values is ChEMBL document CHEMBL1136388, “EDTA bis-(methyl tyrosinate): a chelating peptoid peroxynitrite scavenger” (Bioorg Med Chem Lett, 2003).
